# Measurements as given in the supplement of paper PMC10307832.
# Experiments:
# Experiment in all cases: relative viability (nuclei count vs DMSO), 5 days (fraction); higher = more cells survive
# R406 + Vorinostat = compound: COc1cc(Nc2ncc(F)c(Nc3ccc4c(n3)NC(=O)C(C)(C)O4)n2)cc(OC)c1OC [R406] + O=C(CCCCCCC(=O)Nc1ccccc1)NO [Vorinostat] (partner 1 µM)
# How it was run: (§1)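 After 5 days of treatment, lung cancer cells in 1536-well plates were fixed and stained in a single step (final 0.05% Triton X-100, 1% formaldehyde, 1 ug/ml Hoechst) and their nuclei counted on 4× images. Treatment had been applied by pin tool the day after seeding as one drug alone or as a fixed anchor-drug dose with five library-drug doses (not always all listed) in √10 steps. Relative viability is the nuclei count of treated wells divided by that of vehicle wells, and values are medians of duplicate plates.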
# Daporinad + Alpelisib = compound: O=C(/C=C/c1cccnc1)NCCCCC1CCN(C(=O)c2ccccc2)CC1 [Daporinad] + Cc1nc(NC(=O)N2CCC[C@H]2C(N)=O)sc1-c1ccnc(C(C)(C)C(F)(F)F)c1 [Alpelisib] (partner 2 µM)
# How it was run: as §1
# Daporinad + Lapatinib = compound: O=C(/C=C/c1cccnc1)NCCCCC1CCN(C(=O)c2ccccc2)CC1 [Daporinad] + CS(=O)(=O)CCNCc1ccc(-c2ccc3ncnc(Nc4ccc(OCc5cccc(F)c5)c(Cl)c4)c3c2)o1 [Lapatinib] (partner 2 µM)
# How it was run: as §1
# R406 + Decitabine = compound: COc1cc(Nc2ncc(F)c(Nc3ccc4c(n3)NC(=O)C(C)(C)O4)n2)cc(OC)c1OC [R406] + Nc1ncn([C@H]2C[C@H](O)[C@@H](CO)O2)c(=O)n1 [Decitabine] (partner 2 µM)
# How it was run: as §1
Cell Line,relative viability (R406 + Vorinostat; first compound 0.08 µM),relative viability (R406 + Vorinostat; first compound 0.253 µM),relative viability (R406 + Vorinostat; first compound 0.8 µM),relative viability (R406 + Vorinostat; first compound 2.53 µM),relative viability (R406 + Vorinostat; first compound 8 µM),relative viability (Daporinad + Alpelisib; first compound 0.0005 µM),relative viability (Daporinad + Alpelisib; first compound 0.001581 µM),relative viability (Daporinad + Alpelisib; first compound 0.005 µM),relative viability (Daporinad + Alpelisib; first compound 0.01581 µM),relative viability (Daporinad + Lapatinib; first compound 0.0005 µM),relative viability (Daporinad + Lapatinib; first compound 0.001581 µM),relative viability (Daporinad + Lapatinib; first compound 0.005 µM),relative viability (Daporinad + Lapatinib; first compound 0.01581 µM),relative viability (R406 + Decitabine; first compound 0.08 µM),relative viability (R406 + Decitabine; first compound 0.253 µM),relative viability (R406 + Decitabine; first compound 0.8 µM),relative viability (R406 + Decitabine; first compound 2.53 µM),relative viability (R406 + Decitabine; first compound 8 µM)
NCI-H358,0.766,0.726,0.722,0.314,0.273,0.833,0.984,0.887,0.834,0.359,0.634,0.533,0.451,0.224,0.211,0.222,0.119,0.125
NCI-H460,0.673,1.04,0.917,0.645,0.742,0.54,0.64,0.502,0.566,0.797,1.15,1.08,1.04,0.426,0.596,0.758,0.0438,0.354
NCI-H520,0.671,0.698,0.668,0.384,0.162,0.967,0.546,0.196,0.166,0.976,0.54,0.224,0.149,0.455,0.684,0.53,0.302,0.158
NCI-H596,0.659,0.681,0.72,0.38,0.263,0.539,0.551,0.617,0.372,0.941,1.22,1.08,0.544,0.88,0.994,1.01,0.91,0.372
NCI-H647,0.436,0.645,0.611,0.66,0.113,1.2,1.07,1.19,1.05,1.13,1.34,1.19,1.01,0.39,0.462,0.406,0.486,0.207
NCI-H650,0.494,0.442,0.495,0.439,0.331,1.08,1.24,1.32,1.38,0.889,1.25,1.19,1.31,0.316,0.34,0.34,0.297,0.354
NCI-H661,0.813,0.772,0.737,0.796,0.724,0.635,0.506,0.649,0.401,0.374,0.443,0.403,0.402,0.478,0.531,0.615,0.473,0.405
NCI-H727,1.01,1.26,1.22,1.24,1.18,0.622,0.479,0.619,0.497,0.968,0.831,0.853,0.76,0.919,1.16,0.854,0.872,0.847
NCI-H838,0.694,0.795,0.769,0.458,0.194,0.973,1.03,1.06,0.512,0.998,1.31,0.966,0.5,0.496,0.528,0.485,0.363,0.214
NCI-H1355,0.72,0.71,0.733,0.385,0.439,0.719,0.873,1.02,0.856,0.956,1.09,0.995,0.873,0.335,0.348,0.377,0.345,0.367
NCI-H1395,0.633,0.731,0.843,0.399,0.417,0.987,1.16,1.39,1.31,0.885,1.12,0.977,1.23,0.685,0.782,0.72,0.572,0.628
NCI-H1437,0.901,0.983,0.84,0.835,0.602,1,1.01,1.03,0.936,0.704,0.879,0.867,0.85,0.552,0.623,0.567,0.665,0.472
NCI-H1651,0.557,0.612,0.615,0.547,0.545,1.04,0.905,0.895,0.923,0.803,1.09,0.796,0.984,0.498,0.75,0.654,0.531,0.6
NCI-H1666,1.02,1.09,1.05,1.1,1.03,1.04,1.13,1.23,0.881,0.612,0.633,0.739,0.752,0.672,0.792,0.637,0.936,0.74
NCI-H1734,0.747,0.918,0.909,0.366,0.309,0.703,0.736,0.695,0.582,1.05,1.08,0.986,0.65,0.521,0.524,0.551,0.404,0.399
NCI-H1755,0.778,0.861,0.757,0.642,0.468,0.883,0.979,0.599,0.898,1,1.03,1.06,1.07,0.652,0.707,0.676,0.733,0.679
NCI-H1793,0.632,0.967,0.928,0.128,0.182,0.745,0.749,0.732,0.792,0.337,0.935,0.535,0.805,0.528,0.469,0.446,0.409,0.177
NCI-H1915,0.506,0.631,0.546,0.403,0.369,1.04,1.09,1.14,1.11,0.983,1.03,1.03,0.969,0.258,0.298,0.265,0.293,0.278

Cell Line,relative viability (R406 + Vorinostat; first compound 0.08 µM),relative viability (R406 + Vorinostat; first compound 0.253 µM),relative viability (R406 + Vorinostat; first compound 0.8 µM),relative viability (R406 + Vorinostat; first compound 2.53 µM),relative viability (R406 + Vorinostat; first compound 8 µM),relative viability (Daporinad + Alpelisib; first compound 0.0005 µM),relative viability (Daporinad + Alpelisib; first compound 0.001581 µM),relative viability (Daporinad + Alpelisib; first compound 0.005 µM),relative viability (Daporinad + Alpelisib; first compound 0.01581 µM),relative viability (Daporinad + Lapatinib; first compound 0.0005 µM),relative viability (Daporinad + Lapatinib; first compound 0.001581 µM),relative viability (Daporinad + Lapatinib; first compound 0.005 µM),relative viability (Daporinad + Lapatinib; first compound 0.01581 µM),relative viability (R406 + Decitabine; first compound 0.08 µM),relative viability (R406 + Decitabine; first compound 0.253 µM),relative viability (R406 + Decitabine; first compound 0.8 µM),relative viability (R406 + Decitabine; first compound 2.53 µM),relative viability (R406 + Decitabine; first compound 8 µM)
NCI-H1944,0.504,0.585,0.566,0.466,0.45,0.892,0.907,0.822,0.844,0.849,0.875,0.802,0.804,0.393,0.41,0.358,0.383,0.399
NCI-H1975,0.722,0.775,0.73,0.414,0.213,0.69,0.602,0.755,0.678,1.03,1,0.917,0.826,0.368,0.401,0.386,0.31,0.19
NCI-H1993,0.892,1.03,0.963,0.433,0.447,0.696,0.67,0.685,0.688,0.78,0.811,0.977,0.793,0.623,0.634,0.599,0.537,0.542
NCI-H2009,0.711,0.749,0.785,0.739,0.363,1.17,1.15,1.21,1.07,1.3,1.02,1.07,0.9,0.371,0.42,0.383,0.353,0.294
NCI-H2023,0.732,0.784,0.618,0.391,0.312,0.656,0.636,0.689,0.651,0.699,0.946,0.76,0.843,0.246,0.254,0.247,0.127,0.195
NCI-H2085,0.749,0.8,0.847,0.691,0.561,0.952,1.01,1.14,1.07,0.739,0.741,0.871,0.855,0.592,0.58,0.492,0.544,0.451
NCI-H2087,0.43,0.741,0.885,0.646,0.954,1.07,1.36,1.14,0.928,0.99,0.979,1.18,1.14,0.24,0.264,0.301,0.221,0.152
NCI-H2126,0.833,0.797,0.819,0.581,0.707,0.734,0.758,0.777,0.813,0.799,0.677,0.752,0.82,0.618,0.629,0.638,0.545,0.582
NCI-H2170,0.799,0.791,0.987,0.571,0.658,0.811,0.825,0.795,0.839,0.285,0.263,0.274,0.276,0.437,0.448,0.487,0.41,0.505
NCI-H2347,0.586,0.651,0.767,0.383,0.397,1.11,1.22,1.02,1.08,1.14,0.781,1.06,1.05,0.666,0.645,0.594,0.631,0.562
NCI-H2405,1,1.39,1.14,0.624,0.245,0.918,0.939,0.928,0.466,1.1,1.25,1.12,0.444,0.703,0.814,0.756,0.615,0.369
NCI-H3122,0.884,1.1,1.03,0.923,0.928,0.659,0.964,0.78,0.708,1.01,1.12,1.01,1.02,0.368,0.398,0.328,0.508,0.482
PC-3 [JPC-3],0.811,1.01,0.861,0.546,0.381,1.03,1.03,1.15,1.04,0.433,0.459,0.437,0.455,0.912,0.898,0.974,0.747,0.62
PC-14,0.71,0.84,0.975,0.523,0.451,0.985,0.97,0.913,0.897,0.271,0.383,0.31,0.393,0.301,0.237,0.25,0.0789,0.0868
RERF-LC-KJ,0.669,0.811,0.732,0.583,0.552,0.811,0.893,0.88,0.98,0.682,0.803,0.799,0.888,0.706,0.628,0.72,0.252,0.529
SK-LU-1,0.84,0.822,0.764,0.555,0.155,0.933,1.22,1.47,1.06,0.889,0.907,1.09,0.969,0.583,0.832,0.728,0.599,0.476
SK-MES-1,1.05,1.14,1.21,0.996,0.158,0.841,0.894,0.947,1.03,0.464,0.484,0.51,0.471,0.351,0.384,0.455,0.229,0.181
